pKd, pKi: −log10 of the molar value. Active and inactive are the calls of the source. No cut-off for these calls is given here.
Tests used:
[1] = target: T1, Receptor tyrosine-protein kinase erbB-2 (Homo sapiens, UniProt P04626); assay: Inhibition of ERBB2 autophosphorylation Tyr 1139 residue in human BT474 cells at 2 to 14 uM after 12 hrs by Western blotting
[2] = target: T1, Receptor tyrosine-protein kinase erbB-2; assay: Inhibition of truncated soluble ERBB2 expressed in human MCF7 cell lysate at 1 to 10 uM after mCherry fluorescence assay; format: cell-free
[3] = target: T1, Receptor tyrosine-protein kinase erbB-2; assay: Inhibition of full-length/His-tagged ERBB2 overexpressed in human MCF7 cells assessed as inhibition of AKT phosphorylation at 0.2 to 6 uM after 12 hrs by Western blot analysis; format: cell-based
[4] = target: Proto-oncogene tyrosine-protein kinase Src (Homo sapiens) (UniProt P12931); assay: Inhibition of SRC using biotinylated HNRNPK as substrate up to 6 uM by blotting method
Chain of Proto-oncogene tyrosine-protein kinase Src (Homo sapiens) (P12931 2-536 limits assumed): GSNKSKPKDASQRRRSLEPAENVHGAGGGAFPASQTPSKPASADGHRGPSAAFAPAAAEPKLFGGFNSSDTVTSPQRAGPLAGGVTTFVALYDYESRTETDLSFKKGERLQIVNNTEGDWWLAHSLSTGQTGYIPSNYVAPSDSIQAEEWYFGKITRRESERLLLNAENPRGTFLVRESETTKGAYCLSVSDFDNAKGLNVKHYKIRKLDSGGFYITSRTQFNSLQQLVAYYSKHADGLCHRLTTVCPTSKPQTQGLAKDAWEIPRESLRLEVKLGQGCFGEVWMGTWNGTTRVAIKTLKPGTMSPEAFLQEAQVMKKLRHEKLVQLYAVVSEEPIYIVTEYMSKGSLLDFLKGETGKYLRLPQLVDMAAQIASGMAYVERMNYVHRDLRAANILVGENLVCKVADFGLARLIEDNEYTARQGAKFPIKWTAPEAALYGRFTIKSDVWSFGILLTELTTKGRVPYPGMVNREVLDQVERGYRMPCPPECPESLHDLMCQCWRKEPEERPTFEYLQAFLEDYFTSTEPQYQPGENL

[5] = target: T1, Receptor tyrosine-protein kinase erbB-2; assay: Inhibition of truncated soluble ERBB2 expressed in human MCF7 cell lysate at 1 to 10 uM after mCherry fluorescence assay pretreated with canertinib before lysis; format: cell-based
[6] = target: T1, Receptor tyrosine-protein kinase erbB-2; assay: Binding affinity to full-length/His-tagged ERBB2 UV-vis emission spectroscopy
[7] = target: Proto-oncogene tyrosine-protein kinase Src (Homo sapiens) (UniProt P12931); assay: Inhibition of SRC using biotinylated HNRNPK as substrate at 0.2 to 6 uM by blotting method

T1 sequence (P04626 whole entry, the tested form may be a part): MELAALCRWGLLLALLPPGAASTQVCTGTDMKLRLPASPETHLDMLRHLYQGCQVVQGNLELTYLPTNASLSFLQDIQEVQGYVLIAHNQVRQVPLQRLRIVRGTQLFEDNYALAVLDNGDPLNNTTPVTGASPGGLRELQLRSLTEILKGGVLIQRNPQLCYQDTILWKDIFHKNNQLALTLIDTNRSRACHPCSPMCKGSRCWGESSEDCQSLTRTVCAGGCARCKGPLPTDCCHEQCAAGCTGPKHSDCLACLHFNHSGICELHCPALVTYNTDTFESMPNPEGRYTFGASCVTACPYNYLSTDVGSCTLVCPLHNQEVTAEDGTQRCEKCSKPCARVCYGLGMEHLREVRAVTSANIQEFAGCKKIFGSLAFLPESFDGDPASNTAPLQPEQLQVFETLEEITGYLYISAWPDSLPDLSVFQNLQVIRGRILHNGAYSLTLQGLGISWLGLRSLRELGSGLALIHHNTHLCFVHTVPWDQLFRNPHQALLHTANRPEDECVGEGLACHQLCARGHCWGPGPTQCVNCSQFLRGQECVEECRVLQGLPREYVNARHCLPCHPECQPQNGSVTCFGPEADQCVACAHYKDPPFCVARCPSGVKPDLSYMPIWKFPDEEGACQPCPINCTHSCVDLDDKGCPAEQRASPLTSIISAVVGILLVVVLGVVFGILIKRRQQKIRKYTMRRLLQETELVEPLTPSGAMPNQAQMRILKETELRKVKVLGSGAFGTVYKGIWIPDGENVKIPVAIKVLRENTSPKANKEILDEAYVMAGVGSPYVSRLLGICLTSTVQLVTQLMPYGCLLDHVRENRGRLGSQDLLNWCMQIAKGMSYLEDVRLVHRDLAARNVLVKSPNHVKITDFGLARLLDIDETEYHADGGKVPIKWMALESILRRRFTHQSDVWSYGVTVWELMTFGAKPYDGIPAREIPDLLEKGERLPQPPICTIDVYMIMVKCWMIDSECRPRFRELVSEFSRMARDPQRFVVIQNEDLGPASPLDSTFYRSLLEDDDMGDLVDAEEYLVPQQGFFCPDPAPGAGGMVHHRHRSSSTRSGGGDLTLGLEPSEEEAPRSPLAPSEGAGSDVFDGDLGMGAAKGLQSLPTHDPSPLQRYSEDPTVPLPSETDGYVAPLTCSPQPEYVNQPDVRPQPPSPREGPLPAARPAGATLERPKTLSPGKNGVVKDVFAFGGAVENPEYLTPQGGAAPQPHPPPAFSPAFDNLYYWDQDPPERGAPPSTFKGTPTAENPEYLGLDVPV

pKi [1]	inhibition [2]	inhibition [3]	inhibition [4]	inhibition [5]	pKd [6]	inhibition [7]	SMILES
5.51	Active	inactive	inactive	inactive	5.54	–	CN(C)c1ccc(/C=C/c2ccc3ncnc(NCc4ccccc4)c3c2)cc1
–	–	–	–	–	–	Active	Cc1ccc(-c2nn(C(C)(C)C)c3ncnc(N)c23)cc1

From ChEMBL document CHEMBL2069257, “A fluorescent reporter of ATP binding-competent receptor kinases” (Bioorg Med Chem Lett, 2012)
